Laboratory results reported in article PMC6505943, “Identification of a potential allosteric site of Golgi α-mannosidase II using computer-aided drug design” (PLoS ONE, 2019).
“Also recorded” adds a separate entry of the source. Read-outs that look alike come from different tables or passages of the source. Values belong to the compound of their own block, whether it stands above or below them.

What was measured:
[1] = biological target: T1, Golgi α-mannosidase II from Drosophila melanogaster (dGMII) (Drosophila melanogaster, UniProt Q24451); assay: fluorometric enzyme inhibition assay with dGMII (4-MU-Man substrate); type: biochemical; conditions: for inhibition at 300 µM: at 300 μM compound, 1 mM 4-MU-Man, pH 5.75
T1 construct: His tag; made in house; host or cells: Drosophila Schneider 2 (S2) cells, secreted into the medium
T1 sequence (Q24451 76-1108 limits assumed): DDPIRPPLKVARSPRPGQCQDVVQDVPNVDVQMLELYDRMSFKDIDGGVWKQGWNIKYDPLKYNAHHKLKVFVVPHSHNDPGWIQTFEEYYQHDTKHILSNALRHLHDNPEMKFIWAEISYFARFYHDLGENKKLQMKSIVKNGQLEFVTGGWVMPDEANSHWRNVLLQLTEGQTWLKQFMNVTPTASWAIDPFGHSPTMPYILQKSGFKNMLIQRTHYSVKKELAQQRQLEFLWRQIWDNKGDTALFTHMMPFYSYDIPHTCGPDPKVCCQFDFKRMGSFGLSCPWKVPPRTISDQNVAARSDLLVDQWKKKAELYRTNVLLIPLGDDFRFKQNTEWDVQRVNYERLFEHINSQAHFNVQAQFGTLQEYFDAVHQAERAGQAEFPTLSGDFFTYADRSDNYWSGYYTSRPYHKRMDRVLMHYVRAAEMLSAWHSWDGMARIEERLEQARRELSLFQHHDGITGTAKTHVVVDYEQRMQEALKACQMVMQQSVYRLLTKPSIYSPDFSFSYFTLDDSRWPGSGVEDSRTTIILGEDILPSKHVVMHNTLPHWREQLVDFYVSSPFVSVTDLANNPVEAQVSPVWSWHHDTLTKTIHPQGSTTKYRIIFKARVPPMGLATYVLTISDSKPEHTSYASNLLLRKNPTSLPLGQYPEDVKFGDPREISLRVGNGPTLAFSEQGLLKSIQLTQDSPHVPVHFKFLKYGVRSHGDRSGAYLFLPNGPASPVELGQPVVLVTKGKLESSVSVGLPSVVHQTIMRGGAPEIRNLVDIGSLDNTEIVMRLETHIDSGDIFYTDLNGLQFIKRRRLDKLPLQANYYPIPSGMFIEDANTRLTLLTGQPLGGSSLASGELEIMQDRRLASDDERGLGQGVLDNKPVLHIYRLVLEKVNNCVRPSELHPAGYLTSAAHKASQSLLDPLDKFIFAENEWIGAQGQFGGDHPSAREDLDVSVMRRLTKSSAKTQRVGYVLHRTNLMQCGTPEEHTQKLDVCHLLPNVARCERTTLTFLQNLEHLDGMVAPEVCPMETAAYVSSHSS
Protocol: Inhibition assays with dGMII were performed at pH 5.75 in MES buffer (40 mM), supplemented with bovine serum albumin 1.1% (0.1% final concentration in MES buffer) and ZnSO4-solution 1.1% (0.1% final concentration in MES buffer). The recombinantly expressed and purified enzyme was added to a final concentration of 0.002 mg/mL per well. 4-Methylumbellifer-7-yl-α-D-mannopyranoside (4-MU-Man) was synthesized (S1 File and S2 Fig) and used as substrate with a final concentration of 1 mM per well. The total reaction volume was 50 μL and the mixture was incubated at 37°C for five minutes. […] The release of 4-methylumbelliferone was measured for 15 min by fluorescence spectroscopy using Greiner 96 Flat Bottom Black Polystyrol plates and a Tecan Reader Infinite F200 PRO equipped with a filter system (355 nm excitation and 485 nm emission). Assays in order to investigate the selectivity of compounds between different mannosidases were carried out on JBM. Assays concerning the selectivity between the desired mannosidase inhibition and a potential glucosidase inhibition were carried out on the β-glucosidase of sweet almonds using 4-methylumbelliferyl-β-D-glucopyranoside (4-MU-Glc) as substrate. The substrate 4-MU-Glc was synthesized as described in the supplementary information (S1 File and S3 Fig). JBM and β-glucosidase from sweet almonds were purchased from Sigma Aldrich. The enzyme β-glucosidase from sweet almonds was diluted in citrate buffer in order to obtain a concentration of 0.04 mg/mL. The inhibition assays were carried out at a pH of 5.0 in citrate buffer (20 mM). The substrate concentration was chosen to be 1 mM per well in accordance with the results of several KM value determinations since this concentration ensures good enzyme activity (KM = 1.9 ± 0.1 mM). Inhibition assays JBM were performed in the same buffer as for dGMII. The final concentration of the enzyme per well was 0.003 mg/ml. The substrate 4-MU-Man was used with a final concentration of 0.4 mM per well. The conducted assays with JBM and the β-glucosidase from sweet almonds were performed as described for dGMII.
The most promising compounds according to the molecular modeling studies were tested at 300 μM final concentration except for compound 24 which was tested at 100 μM per well due to the small amount available. […] The inhibition was calculated with the following Eq (2): Inhibition(%)=(1−activity(withinhibitor)/activity(withoutinhibitor))∙100 (2)
KM values were calculated using the Michaelis-Menten kinetics Eq (3) v=vmax[S]/KM+[S] (3) whereby vmax is the maximal velocity, [S] the substrate concentration and KM the substrate concentration yielding a velocity of vmax/2.
IC50 values were calculated using following Eq (4): y=ymax−ymin/1+([I]/IC50)^S+ymin (4) whereby ymax is defined as 100% enzyme activity, ymin as 0% enzyme activity, s is defined as the slope of the linear part of the curves (Hill coefficient), and [I] represents the inhibitor concentration. For the KM value determination, substrate concentrations ranging from 0.4 to 8.0 mM for dGMII and from 0.008 to 1.6 mM for JBM were used. For the IC50 determination of swainsonine, concentrations ranging from 6 to 120 nM were applied. […] The program GraFit (5.0.13, Erithacus Software, Horley, Surrey, UK (2006)) was used to calculate the IC50 values.

JBM = biological target: T2, JBM (Canavalia ensiformis, UniProt C0HJB3); assay: selectivity enzyme assay with JBM (4-MU-Man substrate); type: biochemical, Jack bean
T2 construct: purchased Sigma Aldrich
T2 sequence (C0HJB3 1-562 limits assumed): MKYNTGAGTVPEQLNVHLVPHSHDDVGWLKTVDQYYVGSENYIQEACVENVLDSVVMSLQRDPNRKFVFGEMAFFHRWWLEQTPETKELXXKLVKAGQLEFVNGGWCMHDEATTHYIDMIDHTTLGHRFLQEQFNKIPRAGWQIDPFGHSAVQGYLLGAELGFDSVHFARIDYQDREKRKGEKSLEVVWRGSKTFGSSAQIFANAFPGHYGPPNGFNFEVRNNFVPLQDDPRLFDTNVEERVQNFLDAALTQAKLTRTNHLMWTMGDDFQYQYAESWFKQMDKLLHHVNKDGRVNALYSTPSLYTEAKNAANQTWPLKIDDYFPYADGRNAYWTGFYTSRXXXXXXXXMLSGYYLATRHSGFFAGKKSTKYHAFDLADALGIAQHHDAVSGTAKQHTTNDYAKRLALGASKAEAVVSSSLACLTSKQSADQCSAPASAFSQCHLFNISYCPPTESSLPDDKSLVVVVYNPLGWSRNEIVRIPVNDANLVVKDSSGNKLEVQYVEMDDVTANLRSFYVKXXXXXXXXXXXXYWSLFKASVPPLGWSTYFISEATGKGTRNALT
T2 sequence (C0HJB3 563-981 limits assumed): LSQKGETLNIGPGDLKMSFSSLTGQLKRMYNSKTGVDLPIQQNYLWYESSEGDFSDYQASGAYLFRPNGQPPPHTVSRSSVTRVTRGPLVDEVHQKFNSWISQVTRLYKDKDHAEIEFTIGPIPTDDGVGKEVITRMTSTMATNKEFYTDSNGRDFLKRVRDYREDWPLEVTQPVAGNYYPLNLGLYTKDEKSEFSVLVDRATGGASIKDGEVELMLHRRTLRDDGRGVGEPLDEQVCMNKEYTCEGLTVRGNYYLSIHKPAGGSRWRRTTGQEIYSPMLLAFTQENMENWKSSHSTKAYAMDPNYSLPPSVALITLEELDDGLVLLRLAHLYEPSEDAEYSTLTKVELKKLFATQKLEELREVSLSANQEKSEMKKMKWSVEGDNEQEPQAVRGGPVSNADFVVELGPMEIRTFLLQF
Protocol: (§1) Inhibition assays with dGMII were performed at pH 5.75 in MES buffer (40 mM), supplemented with bovine serum albumin 1.1% (0.1% final concentration in MES buffer) and ZnSO4-solution 1.1% (0.1% final concentration in MES buffer). The recombinantly expressed and purified enzyme was added to a final concentration of 0.002 mg/mL per well. 4-Methylumbellifer-7-yl-α-D-mannopyranoside (4-MU-Man) was synthesized (S1 File and S2 Fig) and used as substrate with a final concentration of 1 mM per well. The total reaction volume was 50 μL and the mixture was incubated at 37°C for five minutes. […] The release of 4-methylumbelliferone was measured for 15 min by fluorescence spectroscopy using Greiner 96 Flat Bottom Black Polystyrol plates and a Tecan Reader Infinite F200 PRO equipped with a filter system (355 nm excitation and 485 nm emission). Assays in order to investigate the selectivity of compounds between different mannosidases were carried out on JBM. Assays concerning the selectivity between the desired mannosidase inhibition and a potential glucosidase inhibition were carried out on the β-glucosidase of sweet almonds using 4-methylumbelliferyl-β-D-glucopyranoside (4-MU-Glc) as substrate. The substrate 4-MU-Glc was synthesized as described in the supplementary information (S1 File and S3 Fig). […]
KM values were calculated using the Michaelis-Menten kinetics Eq (3) v=vmax[S]/KM+[S] […]

[2] = tested on: β-glucosidase of sweet almonds; assay: selectivity enzyme assay with β-glucosidase of sweet almonds (4-MU-Glc substrate); type: biochemical
Protocol: as §1, with “Fig). JBM and β-glucosidase from sweet almonds were purchased from Sigma Aldrich.” for “Fig).”

inhibition at 300 µM (JBM; at 300 μM, 0.4 mM 4-MU-Man): 70% | mode of inhibition ([1]; IC50 at varying substrate concentrations 0.1 to 3 mM): non-competitive inhibition | inhibition at 300 µM [1]: ~46% | ligand efficiency ([1]; based on the inhibitory activity observed in the fluorometric assay): approximately 0.20 kcal/mol | IC50 ([1]; dGMII, 4-MU-Man substrate, read-out: IC50): 217 ± 44.3 µM
SMILES: N#CC(C(=O)C1CCCCN1C(=O)c1cccnc1)c1ccccn1 (centres unmarked) [Compound 18]
inhibition of the β-glucosidase of sweet almonds ([2]; at 300 μM, 1 mM 4-MU-Glc, pH 5.0): no significant inhibition; also recorded: did not exhibit significant inhibition

inhibition at 300 µM [1]: ~41%
SMILES: O=C(Cc1ccn[nH]1)NC[C@@H](O)c1cc2ccccc2s1 [Compound 20]

Km (JBM; substrate of JBM): 600 ± 60 µM | Km ([1]; substrate of dGMII): 3600 ± 300 µM
SMILES: Cc1cc(=O)oc2cc(O[C@H]3O[C@H](CO)[C@@H](O)[C@H](O)[C@@H]3O)ccc12 [4-MU-Man, 4-Methylumbellifer-7-yl-α-D-mannopyranoside, reference compound]

Further lines, the compound ahead of its results:

SMILES: O[C@H]1[C@H]2[C@H](O)CCCN2C[C@H]1O [swainsonine, reference compound]
IC50 [1]: 0.034 ± 0.0014 µM

SMILES: Cc1cc(=O)oc2cc(O[C@@H]3O[C@H](CO)[C@@H](O)[C@H](O)[C@H]3O)ccc12 [4-MU-Glc, 4-methylumbelliferyl-β-D-glucopyranoside, reference compound]
Km ([2]; substrate of β-glucosidase from sweet almonds): 1900 ± 100 µM
